In experiment [1] the target is T1, Human recombinant Vanin-1 (VNN1) (Homo sapiens, UniProt O95497).
T1 construct: purchased Sino Biological Inc. 11662-H08H
T1 sequence (O95497 22-491): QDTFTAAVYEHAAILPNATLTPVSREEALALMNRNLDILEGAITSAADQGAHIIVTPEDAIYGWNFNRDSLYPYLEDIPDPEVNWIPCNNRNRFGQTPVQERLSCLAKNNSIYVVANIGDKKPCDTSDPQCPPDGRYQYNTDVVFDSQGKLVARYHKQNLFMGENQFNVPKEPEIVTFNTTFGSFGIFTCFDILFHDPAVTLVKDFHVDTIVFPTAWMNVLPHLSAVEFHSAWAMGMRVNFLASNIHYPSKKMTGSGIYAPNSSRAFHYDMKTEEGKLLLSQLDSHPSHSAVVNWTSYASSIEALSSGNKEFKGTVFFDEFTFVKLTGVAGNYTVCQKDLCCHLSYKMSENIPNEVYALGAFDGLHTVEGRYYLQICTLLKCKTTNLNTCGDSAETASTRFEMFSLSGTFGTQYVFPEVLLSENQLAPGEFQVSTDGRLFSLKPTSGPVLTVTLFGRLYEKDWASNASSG
The experiment in a line: Vanin-1 enzymatic assay (fluorescence intensity, Pantothenate-AMC substrate). The format is biochemical. Particulars: purified recombinant human Vanin-1 0.5 nM; 30 min preincubation at 30° C.; Pantothenate-AMC 30 μM, 60 min. On the procedure:
Human recombinant Vanin-1 (VNN1) was purchased from Sino Biological Inc. (Catalog Number: 11662-H08H).
Measurement of VNN1 inhibition is performed in 384-well format based on fluorescence intensity assay. Purified recombinant human Vanin-1 (0.5 nM) and threefold serial diluted compounds in 3% DMSO (range of concentrations from 30 μM to 1.524 nM) or controls (3.0% DMSO) are incubated for 30 minutes at 30° C. with gentle agitation in assay buffer containing 100 mM potassium Phosphate Buffer (KPi), pH 7.5, 0.001% Bovine Serum Albumin (BSA), 0.5 mM dithiothreitol (DTT) and 0.0025% Brij-35. The reaction is initiated by the addition of the fluorogenic substrate, Pantothenate-AMC, at a concentration of 30 μM. After 60 minutes of incubation at 30° C. with gentle agitation, fluorescence intensity is measured at λex=350 nm and λem=450 nm with a fluorescence reader (BMG PHERAstar reader or equivalent).

In experiment [2] the target is T2, Vanin-1 in SUIT-S2 cell line (Homo sapiens, UniProt O95497).
T2 construct: endogenous in cells; host or cells: SUIT-S2 cell line (ATCC # CRL1596)
T2 sequence (O95497 22-491): T1 sequence (O95497 22-491)
The experiment can be described thus: Vanin-1 cell-based mechanistic assay (fluorescence intensity, Pantothenate-AMC substrate). Particulars: 40000 cells per well, 2 hours incubation at 37° C., Pantothenate-AMC 30 μM, 30 min. As to the method: Vanin-1 Cell-Based Mechanistic Assay:
The cellular activity of the examples is measured in 96-well format based on fluorescence intensity assay using SUIT-S2 cell line (ATCC # CRL1596).
Cells are cultured at 37° C. with 5% CO2 to 80-90% confluence and then washed once with phosphate-buffered saline (PBS). Adherent cells are detached with PBS-EDTA and once in suspension 40000 cells are dispensed in 90 μl of PBS in 96-well black plates with clear bottoms. Threefold serial dilutions of test compounds are made in DMSO and then solubilized in PBS, dilution range 1:30. Cells and serial diluted test compounds (final concentrations 10 μM to 4.6 nM) or controls (PBS/0.3% DMSO) are incubated for 2 hours at 37° C. with 5% CO2. The reaction is initiated by the addition of the fluorogenic substrate, Pantothenate-AMC, at a concentration of 30 μM. After 30 minutes of incubation at 30° C. with gentle agitation, fluorescence intensity is measured at λex=350 nm and λem=450 nm with a fluorescence reader (BMG PHERAstar reader or equivalent).

What is called IC50 is the concentration needed to halve the response being measured.

As to `C=CC(=O)CCNC(=O)[C@H](O)C(C)(C)CO` [Example 3, (R)-2,4-Dihydroxy-3,3-dimethyl-N-(3-oxo-pent-4-enyl)-butyramide], the results for the IC50 in experiment [1] and in experiment [2] were 9250 nM and 1270 nM, respectively.

On to `CC(C)(CO)[C@@H](O)C(=O)NCCC(=O)/C=C/Cc1ccccc1` [Example 4, (R)-2,4-Dihydroxy-3,3-dimethyl-N-((E)-3-oxo-6-phenyl-hex-4-enyl)-butyramide], for which the IC50 in experiment [1] stood at 2010 nM; in experiment [2], 1190 nM.

Turning to `CC(=O)/C=C/CCNC(=O)[C@H](O)C(C)(C)CO` [Example 5, (R)-2,4-Dihydroxy-3,3-dimethyl-N-((E)-5-oxo-hex-3-enyl)-butyramide], the IC50 in experiment [1] was determined as 3310 nM; in experiment [2], 3200 nM.

Take `CC(C)(CO)[C@@H](O)C(=O)NCC/C=C/C(=O)CCc1ccccc1` [Example 6]: the IC50 in experiment [1] was 5790 nM; in experiment [2], 670 nM.

Turning to `CC(C)(CO)[C@@H](O)C(=O)NCCC(=O)C(N)=O` [Example 7, (R)—N-(3-Carbamoyl-3-oxo-propyl)-2,4-dihydroxy-3,3-dimethyl-butyramide], the IC50 in experiment [1] stood at 830 nM; in experiment [2], 1490 nM.

Turning to `CC(C)(CO)[C@@H](O)C(=O)NCCC(=O)C(=O)NC1CC1` [Example 8, (R)—N-(3-Cyclopropylcarbamoyl-3-oxo-propyl)-2,4-dihydroxy-3,3-dimethyl-butyramide], the concentration for half-maximal inhibition (IC50) worked out at 1680 nM in experiment [1] and 3540 nM in experiment [2].

Consider `CC(C)(CO)[C@@H](O)C(=O)NCCC(=O)C(=O)NCc1ccccc1` [Example 9, (R)—N-(3-Benzylcarbamoyl-3-oxo-propyl)-2,4-dihydroxy-3,3-dimethyl-butyramide], for which the results for the IC50 in experiment [1] and in experiment [2] were 40 nM and 30 nM, respectively.

With `CC(C)(CO)[C@@H](O)C(=O)NCCC(=O)C(=O)NCc1ccccc1F` [Example 10, (R)—N-[3-(2-Fluoro-benzylcarbamoyl)-3-oxo-propyl]-2,4-dihydroxy-3,3-dimethyl-butyramide], the IC50 turned out to be 30 nM in experiment [1] and 25 nM in experiment [2].

Take `CC(C)(CO)[C@@H](O)C(=O)NCCC(=O)C(=O)NCC1CCCCC1` [Example 11, (R)—N-[3-(Cyclohexylmethyl-carbamoyl)-3-oxo-propyl]-2,4-dihydroxy-3,3-dimethyl-butyramide]: the results for the IC50 in experiment [1] and in experiment [2] were 30 nM and 73 nM, respectively.

As to `CC(C)(CO)[C@@H](O)C(=O)NCCC(=O)C(=O)NCCc1cccs1` [Example 14, (R)-2,4-Dihydroxy-3,3-dimethyl-N-[3-oxo-3-(2-thiophen-2-yl-ethylcarbamoyl)-propyl]-butyramide], the IC50 was 50 nM in experiment [1] and 90 nM in experiment [2].

As for `CC(C)(CO)[C@@H](O)C(=O)NCCC(=O)C(=O)NCc1cccc(OC(F)(F)F)c1` [Example 15, (R)-2,4-Dihydroxy-3,3-dimethyl-N-[3-oxo-3-(3-trifluoromethoxy-benzylcarbamoyl)-propyl]-butyramide], the IC50 in experiment [1] was 50 nM; in experiment [2], 140 nM.

Turning to `CC(C)(CO)[C@@H](O)C(=O)NCCC(=O)C(=O)NCc1ccc(F)cc1` [Example 17, (R)—N-[3-(4-Fluoro-benzylcarbamoyl)-3-oxo-propyl]-2,4-dihydroxy-3,3-dimethyl-butyramide], the IC50 in experiment [1] was found to be 30 nM; in experiment [2] it was 20 nM.

Consider `CC(C)(CO)[C@@H](O)C(=O)NCCC(=O)C(=O)NCc1cccc2ccccc12` [Example 19, (R)-2,4-Dihydroxy-3,3-dimethyl-N-{3-[(naphthalen-1-ylmethyl)-carbamoyl]-3-oxo-propyl}-butyramide], for which the IC50 came to 30 nM in experiment [1] and 50 nM in experiment [2].

Regarding `COc1cccc(CNC(=O)C(=O)CCNC(=O)[C@H](O)C(C)(C)CO)c1` [Example 22, (R)-2,4-Dihydroxy-N-[3-(3-methoxy-benzylcarbamoyl)-3-oxo-propyl]-3,3-dimethyl-butyramide], the IC50 in experiment [1] is 60 nM; in experiment [2], 30 nM.

As to `CC(C)(CO)[C@@H](O)C(=O)NCCC(=O)C(=O)NCc1ccccc1C(F)(F)F` [Example 23, (R)-2,4-Dihydroxy-3,3-dimethyl-N-[3-oxo-3-(2-trifluoromethyl-benzylcarbamoyl)-propyl]-butyramide], the values for the IC50 in experiment [1] and in experiment [2] were 70 nM and 50 nM, respectively.

Consider `CC(C)(CO)[C@@H](O)C(=O)NCCC(=O)C(=O)NCc1ccc(S(C)(=O)=O)cc1` [Example 24, (R)-2,4-Dihydroxy-N-[3-(4-methanesulfonyl-benzylcarbamoyl)-3-oxo-propyl]-3,3-dimethyl-butyramide], for which the IC50 was 10 nM in experiment [1] and below 10 nM in experiment [2].

Consider `CC(C)(CO)[C@@H](O)C(=O)NCCC(=O)C(=O)NCc1cccc(OCCNS(C)(=O)=O)c1` [Example 26, (R)-2,4-Dihydroxy-N-{3-[3-(2-methanesulfonylamino-ethoxy)-benzylcarbamoyl]-3-oxo-propyl}-3,3-dimethyl-butyramide], for which the results for the IC50 in experiment [1] and in experiment [2] were 380 nM and 260 nM, respectively.

Regarding `CC(C)(CO)[C@@H](O)C(=O)NCCC(=O)C(=O)NCc1ccc(-c2ccccc2)cc1` [Example 28, (R)—N-{3-[(Biphenyl-4-ylmethyl)-carbamoyl]-3-oxo-propyl}-2,4-dihydroxy-3,3-dimethyl-butyramide], the IC50 amounted to 20 nM in experiment [1] and 100 nM in experiment [2].

As to `CC(C)(CO)[C@@H](O)C(=O)NCCC(=O)C(=O)NCc1ccc(C(=O)O)cc1` [Example 54, 4-{[4-((R)-2,4-Dihydroxy-3,3-dimethyl-butrylamino)-2-oxo-butyrylamino]-methyl}-benzoic acid], in experiment [1], the IC50 was determined as 90 nM.

Turning to `CC(C)(CO)[C@@H](O)C(=O)NCCC(=O)C(=O)NCc1ccc(-c2ccc(C(=O)O)cc2)cc1` [Example 55, 4′-{[4-((R)-2,4-Dihydroxy-3,3-dimethyl-butyrylamino)-2-oxo-butyrylamino]-methyl}-biphenyl-4-carboxylic acid], the IC50 in experiment [1] was below 10 nM.

With `COC(=O)c1ccc(-c2ccc(CNC(=O)C(=O)CCNC(=O)[C@H](O)C(C)(C)CO)cc2)cc1` [Example 56, 4′-{[4-((R)-2,4-Dihydroxy-3,3-dimethyl-butyrylamino)-2-oxo-butyrylamino]-methyl}-biphenyl-4-carboxylic acid methyl ester], the IC50 in experiment [1] was 10 nM.

Take `CC(C)(CO)[C@@H](O)C(=O)NCCN(CCOc1ccccc1)C(=O)CCl` [Example 63, (R)—N-{2-[(2-Chloro-acetyl)-(2-phenoxy-ethyl)-amino]-ethyl}-2,4-dihydroxy-3,3-dimethyl-butyramide]: the IC50 in experiment [1] is 3550 nM.

As to `CC(C)(CO)[C@@H](O)C(=O)NCCN(CCOc1ccc(S(C)(=O)=O)cc1)C(=O)CCl` [Example 64, (R)—N-(2-{(2-Chloro-acetyl)-[2-(4-methanesulfonyl-phenoxy)-ethyl]-amino}-ethyl)-2,4-dihydroxy-3,3-dimethyl-butyramide], the IC50 in experiment [1] came out at 3440 nM.

`COC(=O)c1ccc(OCCN(CCNC(=O)[C@H](O)C(C)(C)CO)C(=O)CCl)cc1` [Example 65, 4-(2-{(2-Chloro-acetyl)-[2-((R)-2,4-dihydroxy-3,3-dimethyl-butyrylamino)-ethyl]-amino}-ethoxy)-benzoic acid methyl ester]: the IC50 in experiment [1] came out at 3990 nM.

In the case of `CC(C)(CO)[C@@H](O)C(=O)NCCN(CCOc1ccc(Br)cc1)C(=O)CCl` [Example 66], the IC50 in experiment [1] came out at 2870 nM.

(Values after patent US9585891B2 (MERCK PATENT GMBH, priority 2012, dated 2017).)
